Experimental data from ChEMBL document CHEMBL4507258 (2021).
pKi: −log10 of the molar value.

Tests used:
[1] = molecular target: Alpha-2B adrenergic receptor (Homo sapiens, UniProt P18089); assay: GPCRScan assay: inhibition of Alpha2B; set-up: radioligand conc. used [nm] 1.5 – 2.0, parental cells HEKT
[2] = molecular target: Activin receptor type-2A (Homo sapiens) (UniProt P27037); details: Compound concentration 1000.0 nM
[3] = molecular target: Bone morphogenetic protein receptor type-1A (Homo sapiens) (UniProt P36894); details: Compound concentration 1000.0 nM
[4] = tested on: Serine/threonine-protein kinase B-raf (Homo sapiens), P15056 [V600E]; details: Compound concentration 1000.0 nM
[5] = molecular target: Serine/threonine-protein kinase BRSK1 (Homo sapiens) (UniProt Q8TDC3); details: Compound concentration 1000.0 nM
[6] = molecular target: Cyclin-dependent kinase 19 (Homo sapiens) (UniProt Q9BWU1); details: Compound concentration 1000.0 nM
[7] = molecular target: Tyrosine-protein kinase CSK (Homo sapiens) (UniProt P41240); details: Compound concentration 1000.0 nM
[8] = molecular target: Casein kinase I isoform gamma-1 (Homo sapiens) (UniProt Q9HCP0); details: Compound concentration 1000.0 nM
[9] = molecular target: Casein kinase I isoform gamma-3 (Homo sapiens) (UniProt Q9Y6M4); details: Compound concentration 1000.0 nM
[10] = molecular target: Death-associated protein kinase 3 (Homo sapiens, UniProt O43293); details: Compound concentration 1000.0 nM
[11] = molecular target: Serine/threonine-protein kinase DCLK3 (Homo sapiens) (UniProt Q9C098); details: Compound concentration 1000.0 nM
[12] = tested on: Epidermal growth factor receptor (Homo sapiens), P00533 [T790M]; details: Compound concentration 1000.0 nM
[13] = molecular target: Mitogen-activated protein kinase 1 (Homo sapiens) (UniProt P28482); details: Compound concentration 1000.0 nM
[14] = molecular target: Rhodopsin kinase GRK7 (Homo sapiens) (UniProt Q8WTQ7); details: Compound concentration 1000.0 nM
[15] = molecular target: Hormonally up-regulated neu tumor-associated kinase (Homo sapiens) (UniProt P57058); details: Compound concentration 1000.0 nM
[16] = molecular target: Tyrosine-protein kinase JAK2 (Homo sapiens) (UniProt O60674); details: Compound concentration 1000.0 nM
[17] = molecular target: Mast/stem cell growth factor receptor Kit (Homo sapiens) (UniProt P10721); details: Compound concentration 1000.0 nM
[18] = molecular target: Mitogen-activated protein kinase kinase kinase 15 (Homo sapiens) (UniProt Q6ZN16); details: Compound concentration 1000.0 nM
[19] = molecular target: Misshapen-like kinase 1 (Homo sapiens) (UniProt Q8N4C8); details: Compound concentration 1000.0 nM
[20] = molecular target: Cyclin-dependent kinase 16 (Homo sapiens) (UniProt Q00536); details: Compound concentration 1000.0 nM
[21] = molecular target: Cyclin-dependent kinase 17 (Homo sapiens) (UniProt Q00537); details: Compound concentration 1000.0 nM
[22] = molecular target: Cyclin-dependent kinase 14 (Homo sapiens) (UniProt O94921); details: Compound concentration 1000.0 nM
[23] = tested on: Phosphatidylinositol 4,5-bisphosphate 3-kinase catalytic subunit alpha isoform (Homo sapiens), P42336 [E542K]; details: Compound concentration 1000.0 nM
[24] = molecular target: 1-phosphatidylinositol 3-phosphate 5-kinase (Homo sapiens) (UniProt Q9Y2I7); details: Compound concentration 1000.0 nM
[25] = molecular target: Serine/threonine-protein kinase PknB (Mycobacterium tuberculosis) (UniProt P9WI81); details: Compound concentration 1000.0 nM
[26] = molecular target: Receptor-interacting serine/threonine-protein kinase 2 (Homo sapiens) (UniProt O43353); details: Compound concentration 1000.0 nM
[27] = molecular target: Ribosomal protein S6 kinase alpha-4 (Homo sapiens) (UniProt O75676); details: Compound concentration 1000.0 nM
[28] = molecular target: Non-receptor tyrosine-protein kinase TYK2 (Homo sapiens) (UniProt P29597); details: Compound concentration 1000.0 nM
[29] = molecular target: Serine/threonine-protein kinase WNK4 (Homo sapiens) (UniProt Q96J92); details: Compound concentration 1000.0 nM
[30] = molecular target: Serine/threonine-protein kinase 32A (Homo sapiens) (UniProt Q8WU08); details: Compound concentration 1000.0 nM
[31] = molecular target: Sodium-dependent serotonin transporter (Homo sapiens) (UniProt P31645); details: Compound concentration 10.0 uM
[32] = molecular target: Alpha-1D adrenergic receptor (Homo sapiens) (UniProt P25100); details: Compound concentration 10.0 uM
[33] = molecular target: Calcium/calmodulin-dependent protein kinase type 1B (Homo sapiens, UniProt Q6P2M8); assay: Inhibition of PNCK at compound concentration of 10.0 uM using the ScanMax (DiscoverX)
[34] = molecular target: Sodium-dependent noradrenaline transporter (Homo sapiens) (UniProt P23975); assay: Norepinephrine uptake CEREP ligand profiling; details: Compound concentration 10.0 uM
[35] = molecular target: Cannabinoid receptor 2 (Homo sapiens) (UniProt P34972); assay: Cannabinoid CB2 receptor (h) CEREP ligand profiling; details: Compound concentration 10.0 uM
[36] = molecular target: D(1B) dopamine receptor (Homo sapiens) (UniProt P21918); assay: Dopamine D5 receptor (h) CEREP ligand profiling; details: Compound concentration 10.0 uM
[37] = molecular target: Sodium-dependent dopamine transporter (Homo sapiens) (UniProt Q01959); assay: Dopamine uptake (h) CEREP ligand profiling; details: Compound concentration 10.0 uM
[38] = molecular target: Galanin receptor (Homo sapiens) (UniProt O60755+O43603+P47211); assay: Galanin receptor (h) CEREP ligand profiling; assay type: protein assay; details: Compound concentration 10.0 uM
[39] = molecular target: Neuropeptide Y receptor type 1 (Homo sapiens) (UniProt P25929); assay: Y1 receptor CEREP ligand profiling; details: Compound concentration 10.0 uM
[40] = molecular target: Neurotensin receptor (Homo sapiens) (UniProt O95665+P30989); assay: Neurotensin receptor (h) CEREP ligand profiling; assay type: protein assay; details: Compound concentration 10.0 uM
[41] = molecular target: Delta-type opioid receptor (Homo sapiens) (UniProt P41143); assay: delta-Opioid receptor (h) CEREP ligand profiling; details: Compound concentration 10.0 uM
[42] = molecular target: 5-hydroxytryptamine receptor 7 (Homo sapiens) (UniProt P34969); assay: 5-Hydroxytryptamine7 (h) CEREP ligand profiling; details: Compound concentration 10.0 uM
[43] = molecular target: Sigma non-opioid intracellular receptor 1 (Homo sapiens, UniProt Q99720); assay: sigma-Receptor (non-selective) CEREP ligand profiling; details: Compound concentration 10.0 uM
[44] = molecular target: Voltage-gated L-type calcium channel (verapamil site) (Homo sapiens, UniProt O60840+Q01668+Q13698+Q13936); assay: Ca2+ channel (L, verapamil site) CEREP ligand profiling; assay type: protein assay; details: compound concentration 10 uM
[45] = Cl- ionophore CEREP ligand profiling; details: Compound concentration 10.0 uM
[46] = molecular target: Endothelin-1 receptor (Homo sapiens) (UniProt P25101); details: Compound concentration 10.0 uM

Sequence of Cyclin-dependent kinase 14 (Homo sapiens) (O94921 whole entry, canonical isoform): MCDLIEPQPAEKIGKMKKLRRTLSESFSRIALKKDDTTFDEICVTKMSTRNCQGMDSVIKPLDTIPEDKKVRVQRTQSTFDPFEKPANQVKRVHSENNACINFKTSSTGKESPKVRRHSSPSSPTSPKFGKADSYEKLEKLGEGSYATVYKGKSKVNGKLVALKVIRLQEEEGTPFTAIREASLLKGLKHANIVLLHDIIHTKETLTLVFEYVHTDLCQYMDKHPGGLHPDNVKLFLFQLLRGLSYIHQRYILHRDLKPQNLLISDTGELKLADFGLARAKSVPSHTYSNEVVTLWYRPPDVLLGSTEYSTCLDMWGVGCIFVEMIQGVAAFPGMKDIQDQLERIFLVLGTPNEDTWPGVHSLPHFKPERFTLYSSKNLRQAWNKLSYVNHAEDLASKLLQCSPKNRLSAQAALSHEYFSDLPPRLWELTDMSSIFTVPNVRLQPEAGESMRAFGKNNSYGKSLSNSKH
Sequence of Serine/threonine-protein kinase DCLK3 (Homo sapiens) (Q9C098 whole entry): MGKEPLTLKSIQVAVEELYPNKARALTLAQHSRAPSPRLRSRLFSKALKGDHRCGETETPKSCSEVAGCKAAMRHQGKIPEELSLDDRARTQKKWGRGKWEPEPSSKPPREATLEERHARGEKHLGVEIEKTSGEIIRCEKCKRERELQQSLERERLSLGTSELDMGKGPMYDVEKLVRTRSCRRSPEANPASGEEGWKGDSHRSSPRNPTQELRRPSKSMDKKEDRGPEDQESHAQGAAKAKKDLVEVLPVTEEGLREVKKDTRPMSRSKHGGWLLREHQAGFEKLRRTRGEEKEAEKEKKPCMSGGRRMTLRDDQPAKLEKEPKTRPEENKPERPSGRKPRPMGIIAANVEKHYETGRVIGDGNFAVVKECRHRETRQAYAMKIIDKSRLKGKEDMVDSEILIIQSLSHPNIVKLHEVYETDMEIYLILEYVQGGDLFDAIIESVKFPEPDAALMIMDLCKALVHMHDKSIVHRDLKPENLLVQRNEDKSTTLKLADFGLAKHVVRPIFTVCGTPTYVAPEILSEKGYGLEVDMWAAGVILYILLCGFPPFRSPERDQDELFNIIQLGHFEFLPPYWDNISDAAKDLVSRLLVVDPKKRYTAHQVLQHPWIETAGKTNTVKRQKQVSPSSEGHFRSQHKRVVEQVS
Sequence of Serine/threonine-protein kinase WNK4 (Homo sapiens) (Q96J92 whole entry): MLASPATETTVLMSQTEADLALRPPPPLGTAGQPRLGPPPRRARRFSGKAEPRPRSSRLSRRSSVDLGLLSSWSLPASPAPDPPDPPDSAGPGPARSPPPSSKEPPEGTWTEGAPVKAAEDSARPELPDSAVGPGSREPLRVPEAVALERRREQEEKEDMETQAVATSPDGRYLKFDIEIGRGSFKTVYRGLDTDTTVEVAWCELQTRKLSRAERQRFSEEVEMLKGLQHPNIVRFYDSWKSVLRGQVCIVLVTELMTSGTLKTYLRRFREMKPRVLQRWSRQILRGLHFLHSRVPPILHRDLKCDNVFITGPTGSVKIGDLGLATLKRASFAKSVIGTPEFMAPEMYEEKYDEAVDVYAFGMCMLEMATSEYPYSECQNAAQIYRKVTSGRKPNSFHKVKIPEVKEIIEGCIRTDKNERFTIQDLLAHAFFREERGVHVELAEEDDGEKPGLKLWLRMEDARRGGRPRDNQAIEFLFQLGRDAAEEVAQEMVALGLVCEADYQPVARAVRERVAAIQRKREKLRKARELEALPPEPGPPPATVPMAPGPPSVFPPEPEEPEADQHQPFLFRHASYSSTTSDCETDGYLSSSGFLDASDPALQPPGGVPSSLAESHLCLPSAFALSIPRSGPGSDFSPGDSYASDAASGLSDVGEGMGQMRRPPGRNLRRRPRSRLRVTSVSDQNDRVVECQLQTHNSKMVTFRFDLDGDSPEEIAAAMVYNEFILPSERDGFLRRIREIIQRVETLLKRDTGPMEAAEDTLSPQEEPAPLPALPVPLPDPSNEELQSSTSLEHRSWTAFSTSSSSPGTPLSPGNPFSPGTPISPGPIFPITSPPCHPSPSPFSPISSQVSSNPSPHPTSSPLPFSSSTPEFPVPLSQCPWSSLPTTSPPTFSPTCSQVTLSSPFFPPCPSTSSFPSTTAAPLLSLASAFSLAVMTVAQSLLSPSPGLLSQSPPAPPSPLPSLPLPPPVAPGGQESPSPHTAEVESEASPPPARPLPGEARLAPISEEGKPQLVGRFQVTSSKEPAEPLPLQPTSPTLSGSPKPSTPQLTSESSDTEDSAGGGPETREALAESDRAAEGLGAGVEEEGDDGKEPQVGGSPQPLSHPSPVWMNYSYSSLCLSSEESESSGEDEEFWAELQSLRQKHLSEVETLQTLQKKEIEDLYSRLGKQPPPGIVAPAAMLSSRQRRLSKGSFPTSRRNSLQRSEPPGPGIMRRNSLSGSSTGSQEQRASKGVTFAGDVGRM
Sequence of Casein kinase I isoform gamma-3 (Homo sapiens) (Q9Y6M4 whole entry, looked up, canonical isoform): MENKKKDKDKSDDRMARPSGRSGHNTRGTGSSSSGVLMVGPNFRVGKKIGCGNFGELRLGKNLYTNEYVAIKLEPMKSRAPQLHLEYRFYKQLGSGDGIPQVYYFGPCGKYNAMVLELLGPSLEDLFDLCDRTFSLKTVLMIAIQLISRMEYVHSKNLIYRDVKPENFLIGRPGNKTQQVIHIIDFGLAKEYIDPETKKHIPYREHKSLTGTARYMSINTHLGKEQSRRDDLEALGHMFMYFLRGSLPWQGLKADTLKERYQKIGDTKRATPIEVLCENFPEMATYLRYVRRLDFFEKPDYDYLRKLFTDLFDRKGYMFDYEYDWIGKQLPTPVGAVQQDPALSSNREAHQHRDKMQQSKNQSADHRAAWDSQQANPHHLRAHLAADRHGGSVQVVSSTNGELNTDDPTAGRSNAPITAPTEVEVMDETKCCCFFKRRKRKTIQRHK
Sequence of Hormonally up-regulated neu tumor-associated kinase (Homo sapiens) (P57058 whole entry): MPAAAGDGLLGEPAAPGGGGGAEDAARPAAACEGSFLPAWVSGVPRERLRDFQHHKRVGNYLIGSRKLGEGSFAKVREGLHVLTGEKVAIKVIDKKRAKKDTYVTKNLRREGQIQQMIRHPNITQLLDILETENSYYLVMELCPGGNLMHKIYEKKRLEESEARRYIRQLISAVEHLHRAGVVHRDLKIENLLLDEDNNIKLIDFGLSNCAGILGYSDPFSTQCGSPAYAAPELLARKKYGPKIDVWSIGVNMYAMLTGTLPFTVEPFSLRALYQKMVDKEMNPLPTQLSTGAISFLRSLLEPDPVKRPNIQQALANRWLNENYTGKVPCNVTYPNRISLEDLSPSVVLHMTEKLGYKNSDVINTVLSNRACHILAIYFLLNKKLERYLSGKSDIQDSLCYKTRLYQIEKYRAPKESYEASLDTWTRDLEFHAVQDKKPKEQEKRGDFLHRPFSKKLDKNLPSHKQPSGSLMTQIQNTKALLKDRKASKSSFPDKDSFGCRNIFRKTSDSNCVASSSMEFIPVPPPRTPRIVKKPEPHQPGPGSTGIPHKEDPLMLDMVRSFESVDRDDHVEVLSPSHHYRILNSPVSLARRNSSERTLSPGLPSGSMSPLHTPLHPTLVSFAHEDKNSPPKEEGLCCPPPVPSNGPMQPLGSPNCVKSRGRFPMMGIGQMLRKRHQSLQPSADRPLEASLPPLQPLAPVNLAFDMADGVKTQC
Sequence of Tyrosine-protein kinase JAK2 (Homo sapiens) (O60674 whole entry): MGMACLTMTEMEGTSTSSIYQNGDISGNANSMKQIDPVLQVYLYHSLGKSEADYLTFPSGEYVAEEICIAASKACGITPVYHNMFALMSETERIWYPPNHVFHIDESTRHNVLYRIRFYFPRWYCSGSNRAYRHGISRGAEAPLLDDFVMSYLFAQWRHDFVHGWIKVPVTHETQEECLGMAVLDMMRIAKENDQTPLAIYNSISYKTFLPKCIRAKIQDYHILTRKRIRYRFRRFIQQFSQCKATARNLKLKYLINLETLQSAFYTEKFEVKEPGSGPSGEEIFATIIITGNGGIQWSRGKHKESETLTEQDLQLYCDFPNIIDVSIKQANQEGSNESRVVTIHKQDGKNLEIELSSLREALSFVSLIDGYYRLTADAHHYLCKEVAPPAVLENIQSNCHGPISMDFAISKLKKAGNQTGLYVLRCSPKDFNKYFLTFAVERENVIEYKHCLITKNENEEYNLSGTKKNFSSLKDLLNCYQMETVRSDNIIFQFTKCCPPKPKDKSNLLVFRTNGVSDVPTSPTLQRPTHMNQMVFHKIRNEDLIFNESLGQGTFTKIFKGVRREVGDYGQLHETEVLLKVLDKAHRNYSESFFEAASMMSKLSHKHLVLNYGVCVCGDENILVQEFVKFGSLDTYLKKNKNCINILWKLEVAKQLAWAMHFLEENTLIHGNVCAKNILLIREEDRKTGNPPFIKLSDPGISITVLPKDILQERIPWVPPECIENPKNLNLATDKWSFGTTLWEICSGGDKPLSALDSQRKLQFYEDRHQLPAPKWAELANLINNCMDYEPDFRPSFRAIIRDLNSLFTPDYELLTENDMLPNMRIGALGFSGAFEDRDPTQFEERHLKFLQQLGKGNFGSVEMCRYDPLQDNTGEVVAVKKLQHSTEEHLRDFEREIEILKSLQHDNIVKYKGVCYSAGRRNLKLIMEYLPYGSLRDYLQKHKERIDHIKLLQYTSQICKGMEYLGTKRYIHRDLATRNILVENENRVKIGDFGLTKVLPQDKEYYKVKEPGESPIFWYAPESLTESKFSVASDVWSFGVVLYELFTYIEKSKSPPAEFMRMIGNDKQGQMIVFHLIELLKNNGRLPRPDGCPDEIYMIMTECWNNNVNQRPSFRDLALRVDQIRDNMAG
Sequence of Mitogen-activated protein kinase 1 (Homo sapiens) (P28482 whole entry): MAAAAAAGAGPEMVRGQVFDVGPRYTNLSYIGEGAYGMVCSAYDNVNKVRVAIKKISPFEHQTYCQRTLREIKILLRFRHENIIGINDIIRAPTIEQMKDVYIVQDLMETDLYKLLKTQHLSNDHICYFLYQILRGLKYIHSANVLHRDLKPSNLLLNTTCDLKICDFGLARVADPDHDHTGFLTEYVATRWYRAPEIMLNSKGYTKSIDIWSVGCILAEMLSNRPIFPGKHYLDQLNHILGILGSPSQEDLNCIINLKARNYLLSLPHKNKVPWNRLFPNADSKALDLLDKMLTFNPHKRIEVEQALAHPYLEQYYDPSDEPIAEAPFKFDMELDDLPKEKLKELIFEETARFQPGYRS

CCCCN(CCCC)C(=O)CN1C[C@@H](c2cc(OC)c3c(c2)OCO3)[C@H](C(=O)O)[C@H]1CC(C)(C)CCC [A-545]
pKi ([1]; read-out: Ki): 5.33
Ki ([1]; read-out: pKi (converted)): 4.17 µM
residual activity [2]: 85.1%
residual activity [3]: 100%
residual activity [4]: 100%
residual activity [5]: 88.9%
residual activity [6]: 99.6%
residual activity [7]: 100%
residual activity [8]: 100%
residual activity [9]: 100%
residual activity [10]: 100%
residual activity [11]: 100%
residual activity [12]: 86.7%
residual activity [13]: 82.1%
residual activity [14]: 90.8%
residual activity [15]: 96.8%
residual activity [16]: 91%
residual activity [17]: 94.9%
residual activity [18]: 99%
residual activity [19]: 100%
residual activity [20]: 100%
residual activity [21]: 93.3%
residual activity [22]: 100%
residual activity [23]: 100%
residual activity [24]: 81.4%
residual activity [25]: 92.8%
residual activity [26]: 100%
residual activity [27]: 97.2%
residual activity [28]: 95.8%
residual activity [29]: 100%
residual activity [30]: 100%
inhibition [31]: -7.99%
inhibition [32]: 6.55%

CCCCN(CCCC)C(=O)CN1C[C@H](c2cc(OC)c3c(c2)OCO3)[C@@H](C(=O)O)[C@@H]1CC(C)(C)CCC [ABT-546]
Kd [33]: > 10 µM (not active)
inhibition [34]: < 10%
inhibition [35]: 11%
inhibition [36]: < 10%
inhibition [37]: < 10%
inhibition [38]: < 10%
inhibition [39]: < 10%
inhibition [40]: < 10%
inhibition [41]: 62%
inhibition [42]: < 10%
inhibition [43]: < 10%
inhibition at 10 µM [44]: 29% (not active)
inhibition [45]: 61%
residual activity [2]: 97.4%
residual activity [3]: 86.9%
residual activity [4]: 89.1%
residual activity [5]: 100%
residual activity [6]: 100%
residual activity [7]: 100%
residual activity [8]: 100%
residual activity [9]: 100%
residual activity [10]: 100%
residual activity [11]: 91.4%
residual activity [12]: 79%
residual activity [13]: 100%
residual activity [14]: 98.3%
residual activity [15]: 100%
residual activity [16]: 100%
residual activity [17]: 92.3%
residual activity [18]: 100%
residual activity [19]: 88.4%
residual activity [20]: 74.8%
residual activity [21]: 99.3%
residual activity [22]: 100%
residual activity [23]: 57.4%
residual activity [24]: 100%
residual activity [25]: 85%
residual activity [26]: 100%
residual activity [27]: 75%
residual activity [28]: 85.9%
residual activity [29]: 97.9%
residual activity [30]: 100%
inhibition [31]: 15.3%
inhibition [46]: 98%
